Literature values, collected in patent US8372434B2, “Ophthalmic oil-in-water type emulsion with stable positive zeta potential” (Novagali Pharma SA, priority 2004, dated 2013).

Conditions: at 0.1% or 0.3% w/v

Compound	safety for ocular administration
CCCCCCCC/C=C\CCCCCCCCN [oleylamine]	safe for ocular administration
CCCCCCCCCCCCCCCCCCN [stearylamine]	safe for ocular administration
